This test concerns the target purified human recombinant CETP (Homo sapiens (Human), UniProt P11597). The experiment in a line: CETP Scintillation Proximity Assay. The class given is biochemical. Conditions: CETP-dependent cholesterol ester transfer from 3H-CE/HDL to biotinylated LDL, 37° C.; read-out: CETP SPA IC50. The protocol:
CETP Scintillation Proximity Assay
Dilutions of compounds in DMSO (1 μl) are added to BD plates (#353232). To this is added 20 μl of a mixture containing ^3H-CE/HDL (0.15 μl), biotinylated LDL (˜5 μg protein/ml final concentration) and unlabeled HDL (16 μg/ml final concentration) in a buffer containing 50 mM HEPES, pH 7.4, 150 mM NaCl and 0.05% sodium azide. Reactions are initiated by the addition of 10 μl of buffer containing purified human recombinant CETP, and incubated at 37° C. At the end of the reaction, 60 μl of LEADseeker beads (#RPNQ0261, 2 mg/ml in buffer containing 1 mg/ml BSA and 0.05 mg protein/ml HDL) are added, the plates are covered and subsequently read. Background activity is determined in a set of wells that receive buffer but no CETP. The level of inhibition is determined by comparing the readings in wells that contain compound to the readings in control wells containing DMSO.
In general terms: Scintillation proximity formats need no separation of bound from free tracer.
purified human recombinant CETP, sequence (P11597 18-493): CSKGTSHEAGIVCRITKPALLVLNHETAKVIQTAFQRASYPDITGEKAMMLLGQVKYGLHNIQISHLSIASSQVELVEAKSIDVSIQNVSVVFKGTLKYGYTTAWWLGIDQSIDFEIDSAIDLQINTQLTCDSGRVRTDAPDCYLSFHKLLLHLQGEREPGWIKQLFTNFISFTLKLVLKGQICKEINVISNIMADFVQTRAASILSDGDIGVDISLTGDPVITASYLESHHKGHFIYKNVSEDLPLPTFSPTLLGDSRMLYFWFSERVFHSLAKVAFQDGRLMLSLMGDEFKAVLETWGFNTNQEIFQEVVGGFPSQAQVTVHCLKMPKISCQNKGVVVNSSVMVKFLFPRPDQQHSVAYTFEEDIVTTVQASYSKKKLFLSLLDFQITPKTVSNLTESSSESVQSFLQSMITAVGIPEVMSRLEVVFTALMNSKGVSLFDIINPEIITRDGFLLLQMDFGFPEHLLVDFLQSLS
What is called IC50 is the midpoint of a concentration-inhibition curve. In the case of `O[C@H](CNC[C@@](Cc1ccccc1)(c1cc(F)cc(OC(F)(F)C(F)F)c1)c1ccc(Cl)cn1)C(F)(F)F` (stereo in doubt) [Example 2, (R)-3-OR)-2-(5-chloropyridin-2-yl)-2-(3-fluoro-5-(1,1,2,2-tetrafluoroethoxy)phenyl)-3-phenylpropylamino)-1,1,1-trifluoropropan-2-ol], the IC50 turned out to be 9 nM.

`O=C(NC[C@@](Cc1ccccc1)(c1cc(F)cc(C(F)(F)F)c1)c1ccc(F)cn1)[C@@](O)(c1ccccc1)C(F)(F)F` [Example 5, (S)-3,3,3-trifluoro-N—((R)-2-(3-fluoro-5-(trifluoromethyl)phenyl)-2-(5-fluoropyridin-2-yl)-3-phenylpropyl)-2-hydroxy-2-phenylpropanamide]: the IC50 was 4360 nM.

Consider `O[C@H](CNC[C@@](Cc1ccccc1)(c1cc(F)cc(C(F)(F)F)c1)c1ccc(F)cn1)C(F)(F)F` [Example 6, (R)-1,1,1-trifluoro-3-((R)-2-(3-fluoro-5-(trifluoromethyl)phenyl)-2-(5-fluoropyridin-2-yl)-3-phenylpropylamino)propan-2-ol], for which the IC50 was found to be 30 nM.

On to `O=C(NCC(Cc1ccccc1)(c1cccc(OC(F)(F)F)c1)c1cccc(OC(F)(F)F)c1)C1CC1(F)F` (stereo not drawn) [Example 11, 2,2-difluoro-N-(3-phenyl-2,2-bis(3-(trifluoromethoxy)phenyl)propyl)cyclopropanecarboxamide], for which the IC50 was 1430 nM.

As for `O=C(NCC(F)(F)F)NCC(Cc1ccccc1)(c1cccc(OC(F)(F)F)c1)c1cccc(OC(F)(F)F)c1` [Example 27, 1-(3-phenyl-2,2-bis(3-(trifluoromethoxy)phenyl)propyl)-3-(2,2,2-trifluoroethyl)urea], the IC50 amounted to 132 nM.

For the compound `Cc1cc(CC(CNC[C@H](O)C(F)(F)F)(c2cccc(OC(F)(F)F)c2)c2cccc(OC(F)(F)F)c2)no1` [Example 43, (S)-1,1,1-trifluoro-3-(3-(5-methylisoxazol-3-yl)-2,2-bis(3-(trifluoromethoxy)phenyl)propylamino)propan-2-ol], the IC50 was 134 nM.

As for `O[C@H](CNCC(Cc1ccccn1)(c1cccc(OC(F)(F)F)c1)c1cccc(OC(F)(F)F)c1)C(F)(F)F` [Example 44, (R)-1,1,1-trifluoro-3-(3-(pyridin-2-yl)-2,2-bis(3-(trifluoromethoxy)phenyl)propylamino)propan-2-ol], the IC50 stood at 19 nM.

Turning to `O[C@@H](CN(C[C@H](O)C(F)(F)F)CC(Cc1ccccc1)(c1cccc(OC(F)(F)F)c1)c1cccc(OC(F)(F)F)c1)C(F)(F)F` [Example 45, (2S,2′S)-3,3′-(3-phenyl-2,2-bis(3-(trifluoromethoxy)phenyl)propylazanediyl)bis(1,1,1-trifluoropropan-2-ol)], the IC50 came out at 2810 nM.

In the case of `O[C@H](CNCC(Cc1ccccc1)(c1cccc(OC(F)(F)F)c1)c1cccc(OC(F)(F)F)c1)C(F)(F)F` [Example 47, (R)-1,1,1-trifluoro-3-(3-phenyl-2,2-bis(3-(trifluoromethoxy)phenyl)propylamino)propan-2-ol], the IC50 is 14 nM.

For the compound `Cc1ccc(CC(CNC[C@@H](O)C(F)(F)F)(c2cccc(OC(F)(F)F)c2)c2cccc(OC(F)(F)F)c2)cc1` [Example 50, (R)-1,1,1-trifluoro-3-(3-p-tolyl-2,2-bis(3-(trifluoromethoxy)phenyl)propylamino)propan-2-ol], the IC50 is 9 nM.

For the compound `FC(F)(F)CCNCC(Cc1ccccc1)(c1cccc(OC(F)(F)F)c1)c1cccc(OC(F)(F)F)c1` [Example 53, 3,3,3-trifluoro-N-(3-phenyl-2,2-bis(3-(trifluoromethoxy)phenyl)propyl)propan-1-amine], the IC50 came out at 25 nM.

On to `Oc1c(F)cccc1CNCC(Cc1ccccc1)(c1cccc(OC(F)(F)F)c1)c1cccc(OC(F)(F)F)c1` [Example 94, 2-fluoro-6-((3-phenyl-2,2-bis(3-(trifluoromethoxy)phenyl)propylamino)methyl)phenol], for which the IC50 stood at 184 nM.

Regarding `FC(F)(F)Oc1cccc(C(CNc2ncc(N3CCOCC3)cn2)(Cc2ccccc2)c2cccc(OC(F)(F)F)c2)c1` [Example 112, 5-morpholino-N-(3-phenyl-2,2-bis(3-(trifluoromethoxy)phenyl)propyl)pyrimidin-2-amine], the IC50 came to 248 nM.

`O=S(=O)(CC(F)(F)F)NCC(Cc1ccccc1)(c1cccc(OC(F)(F)F)c1)c1cccc(OC(F)(F)F)c1` [Example 122, 2,2,2-trifluoro-N-(3-phenyl-2,2-bis(3-(trifluoromethoxy)phenyl)-propyl)ethanesulfonamide]: the IC50 worked out at 129 nM.

Consider “isopropyl 3-phenyl-2,2-bis(3- (trifluoromethoxy)phenyl)- propylcarbamate [Example 133]”, for which the IC50 was 1090 nM.

The values above are taken from patent US9102599B2, “N-((3-benzyl)-2,2-(bis-phenyl)-propan-1-amine derivatives as CETP inhibitors for the treatment of atherosclerosis and cardiovascular diseases” (Bristol-Myers Squibb Company, priority 2006, dated 2015).
